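The compound was tested at five concentrations on cells cultured in 96-well plates, with a 48-hour exposure period. GI50 marks 50% less growth. At the TGI there is no net growth.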 A value given as a limit tells only on which side of the number the result lay.

One assay concerns SF-268 CNS. The experiment in a line: DTP human tumour cell line panel, 48 h.
`N#CC1CC(c2ccccc2)Nc2cc(Cl)ccc2N1` (centres undefined) registered a TGI above 100 µM.

The next assay relates to UACC-257 melanoma. Put plainly: DTP human tumour cell line panel, 48 h.
On to `CCOC(=O)C1=C(NC)OCC1=O`, for which the TGI is above 100 µM.
Consider `CCOC(=O)C1(C)CCC(C(C(=O)O)C(=O)O)CC1=O` (centres undefined), for which the TGI was above 100 µM.
Still for that read-out and setting: under `CC1NOC(=O)C1N=Nc1ccc(Cl)cc1Cl` (centres undefined) stands 67.2 µM; under `O=C1NC(=O)C2C(=O)NC(=O)C1C2Cc1ccco1` (centres undefined), above 100 µM.
The molecule `CCOC(=O)/C(=C/c1ccccn1)C(=O)c1ccccc1` showed a total growth inhibition concentration (TGI) of 27.9 µM.
As to `COc1ccc2nc(NC(=O)C(=O)CC(=O)c3ccc([N+](=O)[O-])cc3)sc2c1`, the TGI was above 100 µM.
With `CC(=O)Nc1ccc(C2CC(c3ccc([N+](=O)[O-])cc3)=Nc3ccccc3S2=O)cc1` (centres undefined), the TGI amounted to 95.3 µM.
Consider `COc1cc(/C=C2\NC(=O)C(Cc3cc(OC)c(OC)c(C)c3OC)N(C(C)=O)C2=O)c(OC)c(C)c1OC` (centres undefined), for which the TGI is above 100 µM.
Regarding `COc1cc(C(=O)/C=C/c2cccc(Nc3ccnc4cc(Cl)ccc34)c2)cc(OC)c1OC`, the GI50 was 1.43 µM and the concentration for total growth inhibition (TGI) stood at 3.06 µM.
Molecule `O=NN(CCCl)C(=O)NC1CCC(CC(=O)O)CC1` (centres undefined) returned a TGI above 100 µM.
In turn, `C[C@H](C(=O)O)C(=O)NC(=O)N(Cc1ccccc1)N=O` returned a TGI above 100 µM.
In turn, `NNC(=O)C(=O)NN=C(C(Cl)(Cl)CO)C(Cl)(Cl)CO` yielded a TGI above 100 µM.
In turn, `COc1ccc(/C=C2\C(=O)N(NC(C)=O)c3ccccc32)cc1` displayed a TGI above 100 µM.
In the case of `O=C1N[C@@H]2CCCC[C@@H]2C12CCCCC2`, the TGI is above 100 µM.
`COc1ccc2ccccc2c1C1=NC(C)(C)CO1` registered a concentration for total growth inhibition (TGI) above 100 µM.
`NC1=NC(Cn2nc(-c3ccccc3)c3ccccc3c2=O)=NNC(=O)N1` displayed a TGI above 100 µM.
With `O=C(CCCC(=O)Nc1ccc(Cl)cc1Cl)CC(=O)c1ccc2ccccc2c1`, the TGI was above 100 µM.
For the molecule `O=C(NCCc1ccccc1)C1C(=O)C(=O)N(CCc2ccccc2)C1=O` (centres undefined), the TGI was above 100 µM.
Regarding `OC(c1ccccc1Br)(c1ccccc1Br)C(F)(F)F`, the TGI came out at 72.9 µM.
On the same count and under the same terms, then `CC(=O)OC1COC(N2CCc3cc([N+](=O)[O-])ccc32)C(OC(C)=O)C1OC(C)=O` (centres undefined), with above 100 µM; and `CCOC(=O)C1S(=O)(=O)OCCOS1(=O)=O`, with above 100 µM; and `CCc1cccc(CC)c1NC(=O)/C(Cl)=C(/Cl)C(=O)O`, with 48.3 µM.
In the case of `O=[N+]([O-])c1ccc(-c2ccc(C3=Nn4c(CNc5ccccc5Cl)nnc4SC3)o2)cc1`, the TGI was above 100 µM.
Take `CCCC(=O)CC(C)C(=O)C(=O)NC12CC3CC(CC(C3)C1)C2` (centres undefined): the TGI is above 100 µM.
On to `CC(=O)OCC(=O)[C@@]1(O)CC[C@H]2[C@@H]3C[C@H](C)C4=CC(=O)C=C[C@]4(C)[C@@]3(F)[C@@H](O)C[C@@]21C`, for which the TGI is above 100 µM.
Consider `Nc1nc(=S)c2c(ncn2CCO)[nH]1`, for which the TGI is above 100 µM.
The molecule `COc1cc(/C=C/c2csnn2)cc(OC)c1OC` yielded a TGI above 100 µM.
The molecule `c1ccc(C(c2ccccc2)c2ccccn2)cc1` registered a TGI above 100 µM.
Regarding `N#CC1CC(c2ccccc2)Nc2cc(Cl)ccc2N1` (centres undefined), the TGI was above 100 µM.

The next assay concerns UACC-62 melanoma. The experiment in a line: DTP human tumour cell line panel, 48 h.
Consider `CCOC(=O)C1=C(NC)OCC1=O`, for which the concentration for total growth inhibition (TGI) is above 100 µM.
`CCOC(=O)C1(C)CCC(C(C(=O)O)C(=O)O)CC1=O` (centres undefined) displayed a TGI above 100 µM.
The molecule `COC(=O)C1=C(C(=O)OC)C2(c3ccccc3)OC1(c1ccccc1)c1cc3ccccc3cc12` registered a TGI of 4.26 µM.
In turn, `CC1NOC(=O)C1N=Nc1ccc(Cl)cc1Cl` (centres undefined) gave a TGI above 100 µM.
Molecule `O=C1NC(=O)C2C(=O)NC(=O)C1C2Cc1ccco1` (centres undefined) returned a TGI above 100 µM.
`CCOC(=O)/C(=C/c1ccccn1)C(=O)c1ccccc1`: the TGI was determined as 24 µM.
As to `O=C(c1ccccc1)[C@H]1Nc2ccc(Cl)cc2[C@H]2CCC[C@@H]12`, the concentration for total growth inhibition (TGI) is above 100 µM.
Take `COc1ccc2nc(NC(=O)C(=O)CC(=O)c3ccc([N+](=O)[O-])cc3)sc2c1`: the TGI was above 100 µM.
Molecule `CC(=O)Nc1ccc(C2CC(c3ccc([N+](=O)[O-])cc3)=Nc3ccccc3S2=O)cc1` (centres undefined) displayed a concentration for total growth inhibition (TGI) of 27.8 µM.
Molecule `COc1cc(/C=C2\NC(=O)C(Cc3cc(OC)c(OC)c(C)c3OC)N(C(C)=O)C2=O)c(OC)c(C)c1OC` (centres undefined) returned a total growth inhibition concentration (TGI) above 100 µM.
For `COc1cc(C(=O)/C=C/c2cccc(Nc3ccnc4cc(Cl)ccc34)c2)cc(OC)c1OC`, the GI50 was 1.03 µM and the TGI was found to be 2.36 µM.
In turn, `O=NN(CCCl)C(=O)NC1CCC(CC(=O)O)CC1` (centres undefined) came in with a concentration for total growth inhibition (TGI) above 100 µM.
`C[C@H](C(=O)O)C(=O)NC(=O)N(Cc1ccccc1)N=O` came in with a TGI above 100 µM.
Molecule `NNC(=O)C(=O)NN=C(C(Cl)(Cl)CO)C(Cl)(Cl)CO` registered a TGI above 100 µM.
As for `COc1ccc(/C=C2\C(=O)N(NC(C)=O)c3ccccc32)cc1`, the concentration for total growth inhibition (TGI) was above 100 µM.
Molecule `O=C1N[C@@H]2CCCC[C@@H]2C12CCCCC2` showed a TGI above 100 µM.
For `COc1ccc2ccccc2c1C1=NC(C)(C)CO1`, the TGI is above 100 µM.
`NC1=NC(Cn2nc(-c3ccccc3)c3ccccc3c2=O)=NNC(=O)N1` showed a TGI above 100 µM.
The same measure, in the same setting: under `O=C(CCCC(=O)Nc1ccc(Cl)cc1Cl)CC(=O)c1ccc2ccccc2c1` stands above 100 µM; under `O=C(NCCc1ccccc1)C1C(=O)C(=O)N(CCc2ccccc2)C1=O` (centres undefined), above 100 µM.
For `OC(c1ccccc1Br)(c1ccccc1Br)C(F)(F)F`, the TGI is 57.7 µM.
For the molecule `CC(=O)OC1COC(N2CCc3cc([N+](=O)[O-])ccc32)C(OC(C)=O)C1OC(C)=O` (centres undefined), the TGI was above 100 µM.
In the case of `CCOC(=O)C1S(=O)(=O)OCCOS1(=O)=O`, the TGI was above 100 µM.
On the same count and under the same terms, then `CC12OC(=O)C(C#N)C1(C)C1C(=O)CCCC12` (centres undefined), with above 100 µM.
Still for that read-out and setting: under `Cc1nc2ccccc2c(=O)n1/N=C(\N=Nc1ccccc1Cl)c1ccccc1Cl` stands above 100 µM.
`CCc1cccc(CC)c1NC(=O)/C(Cl)=C(/Cl)C(=O)O` returned a TGI above 66.7 µM.
Consider `O=[N+]([O-])c1ccc(-c2ccc(C3=Nn4c(CNc5ccccc5Cl)nnc4SC3)o2)cc1`, for which the TGI was above 100 µM.
On the same count and under the same terms, under `CC(=O)OCC(=O)[C@@]1(O)CC[C@H]2[C@@H]3C[C@H](C)C4=CC(=O)C=C[C@]4(C)[C@@]3(F)[C@@H](O)C[C@@]21C` stands above 100 µM; under `Nc1nc(=S)c2c(ncn2CCO)[nH]1`, above 100 µM.
`COc1cc(/C=C/c2csnn2)cc(OC)c1OC`: the concentration for total growth inhibition (TGI) is above 100 µM.
Take `c1ccc(C(c2ccccc2)c2ccccn2)cc1`: the TGI is above 100 µM.
`N#CC1CC(c2ccccc2)Nc2cc(Cl)ccc2N1` (centres undefined): the TGI was above 100 µM.

These data come from PubChem BioAssay (NCI).
